Source: BigSolDB 2.1

CC[C@H]1OC(=O)[C@H](C)[C@@H](O[C@H]2C[C@@](C)(OC)[C@@H](O)[C@H](C)O2)[C@H](C)[C@@H](O[C@@H]2O[C@H](C)C[C@H](N(C)C)[C@H]2O)[C@](C)(O)C[C@@H](C)CN(C)[C@H](C)[C@@H](O)[C@]1(C)O.O
solubility (mole fraction)
Conditions	278.15 K	283.15 K	288.15 K	293.15 K	298.15 K	303.15 K	308.15 K	313.15 K	318.15 K	323.15 K
in acetone	0.0305	0.0329	0.0353	0.0386	0.0424	0.0464	0.0512	0.0569	0.063	0.0721
in ethanol	0.0299	0.0325	0.0348	0.0371	0.0406	0.0451	0.0491	0.0538	0.0573	0.0588
in ethyl acetate	0.0324	0.0341	0.0366	0.0396	0.0436	0.0521	0.0593	0.0671	0.0743	0.081
in isopropanol	0.0281	0.0303	0.0327	0.0349	0.0388	0.0433	0.0459	0.0507	0.0542	0.0575
in n-butanol	0.0249	0.0254	0.0274	0.0282	0.0301	0.0324	0.0356	0.0386	0.0422	0.0466
